# Measured values as given in paper PMC9319179, “Heterologous Expression and Characterization of Plant Wax Ester Producing Enzymes” (Metabolites, 2022).
# How the values were obtained:
# Arabidopsis At5g55340 WS = biological target: T1, Arabidopsis At5g55340 WS (Arabidopsis thaliana, UniProt Q9FJ76); assay: in vivo feeding of expressing yeast, wax esters by TLC and GC-MS; assay type: cell-based; conditions: S. cerevisiae H1246; 50 uM alcohol with fed fatty acid (13:0 preferred), 20 °C; acyl donor formed in vivo
# T1 construct: gene AT5
# T1 sequence (Q9FJ76 1-333): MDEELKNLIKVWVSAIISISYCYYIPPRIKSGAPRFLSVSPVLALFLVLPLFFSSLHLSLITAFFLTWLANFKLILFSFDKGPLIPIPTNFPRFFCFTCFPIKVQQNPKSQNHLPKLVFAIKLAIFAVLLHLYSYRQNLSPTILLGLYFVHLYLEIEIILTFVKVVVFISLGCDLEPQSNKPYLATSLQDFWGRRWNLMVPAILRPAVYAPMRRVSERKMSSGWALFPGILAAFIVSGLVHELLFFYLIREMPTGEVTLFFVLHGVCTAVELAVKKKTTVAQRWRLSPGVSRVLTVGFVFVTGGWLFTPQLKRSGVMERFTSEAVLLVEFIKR
# [1] = biological target: T2, maize WS (NP_001147171.1) (Zea mays, UniProt B6SLT2); assay: in vivo feeding of expressing yeast, ethyl/benzyl esters by GC-MS; assay type: cell-based; conditions: S. cerevisiae H1246; fed fatty acids (14:1 preferred acyl), 20 °C; acyl donor formed in vivo
# T2 construct: full-length ORF, C-terminal His6 tag, yeast codon-optimized synthetic ORF, expressed in S. cerevisiae H1246
# T2 sequence (B6SLT2 1-345): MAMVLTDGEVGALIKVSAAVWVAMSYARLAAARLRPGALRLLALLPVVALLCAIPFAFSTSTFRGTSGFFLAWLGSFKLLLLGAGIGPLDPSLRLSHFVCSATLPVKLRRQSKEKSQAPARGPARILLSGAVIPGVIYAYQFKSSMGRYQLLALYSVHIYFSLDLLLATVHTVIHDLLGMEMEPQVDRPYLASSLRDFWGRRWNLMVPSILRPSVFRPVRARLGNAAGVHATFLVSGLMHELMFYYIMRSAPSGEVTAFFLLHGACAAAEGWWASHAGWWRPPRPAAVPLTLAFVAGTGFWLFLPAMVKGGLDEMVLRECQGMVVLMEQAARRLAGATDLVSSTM
SMILES,"in vivo feeding of expressing yeast, wax esters by TLC and GC-MS (Arabidopsis At5g55340 WS)","in vivo feeding of expressing yeast, ethyl/benzyl esters by GC-MS [1]"
"CCCCCCCCCCCCCO [C13:0, C13:0 fatty alcohol]",apparent optimum at 13-carbon chain length for both the fatty acid and fatty alcohol,
OCc1ccccc1 [benzyl alcohol],,"ability to assemble esters with ethanol, benzyl alcohol, and phenylethyl alcohol"
CCO [ethanol],,"ability to assemble esters with ethanol, benzyl alcohol, and phenylethyl alcohol"
